The results in this text go back to the supplement of paper PMC11208160.
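Note: IS621 recombinase and bridge RNA in Escherichia coli cells.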

This series is described as follows: recombinant barcode read abundance after kanamycin selection (control-corrected) (log10(CPM+1)); higher = more efficient recombination; sequences stand for … in AGTGCAGAGAAAATCGGCCAGTTTTCTCTGCCTGCAGTCCGCATGCCGT…AGATTTATGCAGCGGACTGCCTTTCTCCCAAAGTGATAAACCGGACAGTATCATGGACCGGTTTTCCCGGTAATCCGTATTTGCAAGGTTGGTTTCACT; site = the 11-nt target. The protocol: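 Pooled E. coli target-specificity screen for the IS621 bridge recombinase. Each library plasmid pairs an 11-nt target (CT core) with a bridge RNA whose target-binding loop (9-nt LTG + 4-nt RTG) is reprogrammed; the rest of the 177-nt WT IS621 bridge RNA scaffold is fixed. The plasmid is co-electroporated with a WT donor plasmid; recombinase is induced with 0.1 mM IPTG and recombinants are selected on kanamycin. Recombinant barcodes are sequenced, converted to CPM, averaged over two biological replicates and corrected by the unselected control CPM. Molecule = full bridge RNA written as DNA: LTG = specificity nt 1-9, RTG = reverse complement of specificity nt 8-11, in the WT scaffold.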
For “ACCCAACCTTGGGTTCTAACCTGTTGCCT (site ACCCAAACTAG)”, the “recombinant barcode read abundance (log10)” value was 0.242.

For the sequence “ACCCAACCTTGGGTTCTAACCTGTTGCCT (site ACCCAACCTAG)”, the “recombinant barcode read abundance (log10)” value is 1.58.

Turning to “ACCCAACCTTGGGTTCTAACCTGTTGCCT (site ACCCAAGCTAG)”, the “recombinant barcode read abundance (log10)” value turned out to be 0.104.

With “ACCCAACCTTGGGTTCTAACCTGTTGCCT (site ACCCAATCTAG)”, the “recombinant barcode read abundance (log10)” value worked out at 0.0366.

On to “ACCCAATCTTGGGTTCTAACCTGTTGCCT (site ACCCAAACTAG)”, for which the “recombinant barcode read abundance (log10)” value was determined as 0.266.

With “ACCCAATCTTGGGTTCTAACCTGTTGCCT (site ACCCAACCTAG)”, the “recombinant barcode read abundance (log10)” value turned out to be 0.0978.

With “ACCCAATCTTGGGTTCTAACCTGTTGCCT (site ACCCAAGCTAG)”, the “recombinant barcode read abundance (log10)” value was 0.207.

Take “ACCCAATCTTGGGTTCTAACCTGTTGCCT (site ACCCAATCTAG)”: the “recombinant barcode read abundance (log10)” value worked out at 1.47.

With “ACCCACACTTGGGTTCTAACCTGTTGCCG (site ACCCACACTCG)”, the “recombinant barcode read abundance (log10)” value stood at 1.8.

As for “ACCCACACTTGGGTTCTAACCTGTTGCCG (site TCCCACACTTG)”, the “recombinant barcode read abundance (log10)” value amounted to 0.111.

Take “ACCGAGACTTGGGTTCTAACCTGTTGCGG (site ACCGAGACTCC)”: the “recombinant barcode read abundance (log10)” value worked out at 2.7.

Consider “ACCGAGACTTGGGTTCTAACCTGTTGCGG (site AGTGAGACTCC)”, for which the “recombinant barcode read abundance (log10)” value was 0.0628.

In the case of “ACCGAGTCTTGGGTTCTAACCTGTTGCCT (site AACGAGTCTAG)”, the “recombinant barcode read abundance (log10)” value was found to be 0.202.

For the sequence “ACCGAGTCTTGGGTTCTAACCTGTTGCCT (site ACCGAGTCTAG)”, the “recombinant barcode read abundance (log10)” value worked out at 1.85.

For “ACCGAGTCTTGGGTTCTAACCTGTTGCCT (site AGCGAGTCTAG)”, the “recombinant barcode read abundance (log10)” value was 0.164.

For “ACCGAGTCTTGGGTTCTAACCTGTTGCCT (site ATCGAGTCTAG)”, the “recombinant barcode read abundance (log10)” value is 0.387.

“ACCGCTACTTGGGTTCTAACCTGTTGCCT (site ACCGCTACTAG)”: the “recombinant barcode read abundance (log10)” value turned out to be 0.176.

On to “ACCGCTACTTGGGTTCTAACCTGTTGCCT (site AGCGCTACTAG)”, for which the “recombinant barcode read abundance (log10)” value amounted to 0.0813.

Consider “ACCGGGACTTGGGTTCTAACCTGTTGCCT (site ACCGAGACTAG)”, for which the “recombinant barcode read abundance (log10)” value came to 0.285.

Take “ACCGGGACTTGGGTTCTAACCTGTTGCCT (site ACCGCGACTAG)”: the “recombinant barcode read abundance (log10)” value was determined as 0.159.

As for “ACCGGGACTTGGGTTCTAACCTGTTGCCT (site ACCGGGACTAG)”, the “recombinant barcode read abundance (log10)” value came out at 1.14.

As for “ACCGGGACTTGGGTTCTAACCTGTTGCCT (site ACCGTGACTAG)”, the “recombinant barcode read abundance (log10)” value worked out at 0.

For the sequence “ACCGGTACTTGGGTTCTAACCTGTTGCCT (site ACCAGTACTAG)”, the “recombinant barcode read abundance (log10)” value worked out at 0.408.

“ACCGGTACTTGGGTTCTAACCTGTTGCCT (site ACCCGTACTAG)”: the “recombinant barcode read abundance (log10)” value worked out at 0.014.

As to “ACCGGTACTTGGGTTCTAACCTGTTGCCT (site ACCGGTACTAG)”, the “recombinant barcode read abundance (log10)” value was found to be 0.508.

Take “ACCGGTACTTGGGTTCTAACCTGTTGCCT (site ACCTGTACTAG)”: the “recombinant barcode read abundance (log10)” value amounted to 0.0135.

Take “ACCTAACCTTGGGTTCTAACCTGTTGCAG (site ACCTAACCTCT)”: the “recombinant barcode read abundance (log10)” value stood at 1.22.

Consider “ACCTAACCTTGGGTTCTAACCTGTTGCAG (site TCCTAACCTCA)”, for which the “recombinant barcode read abundance (log10)” value was 0.0355.

For the sequence “ACCTGTCCTTGGGTTCTAACCTGTTGCCT (site ACCTGACCTAG)”, the “recombinant barcode read abundance (log10)” value amounted to 0.269.

With “ACCTGTCCTTGGGTTCTAACCTGTTGCCT (site ACCTGCCCTAG)”, the “recombinant barcode read abundance (log10)” value turned out to be 0.0321.

Regarding “ACCTGTCCTTGGGTTCTAACCTGTTGCCT (site ACCTGGCCTAG)”, the “recombinant barcode read abundance (log10)” value is 0.173.

For the sequence “ACCTGTCCTTGGGTTCTAACCTGTTGCCT (site ACCTGTCCTAG)”, the “recombinant barcode read abundance (log10)” value amounted to 0.986.

Consider “ACCTTAACTTGGGTTCTAACCTGTTGCCT (site ACCTTAACTAG)”, for which the “recombinant barcode read abundance (log10)” value was found to be 0.166.

Regarding “ACCTTAACTTGGGTTCTAACCTGTTGCCT (site ATCTCAACTAG)”, the “recombinant barcode read abundance (log10)” value came out at 0.

Regarding “ACCTTGCCTTGGGTTCTAACCTGTTGCTA (site ACCTTGCCTTA)”, the “recombinant barcode read abundance (log10)” value turned out to be 0.478.

With “ACCTTGCCTTGGGTTCTAACCTGTTGCTA (site TGGAGAGCTCT)”, the “recombinant barcode read abundance (log10)” value worked out at 0.0461.

As to “ACGAACGCTTGGGTTCTAACCTGTTGCCT (site ACGAACGCTAG)”, the “recombinant barcode read abundance (log10)” value came to 1.64.

As to “ACGAACGCTTGGGTTCTAACCTGTTGCCT (site ACGACCGCTAG)”, the “recombinant barcode read abundance (log10)” value was determined as 0.344.

As to “ACGAACGCTTGGGTTCTAACCTGTTGCCT (site ACGAGCGCTAG)”, the “recombinant barcode read abundance (log10)” value amounted to 0.085.

For “ACGAACGCTTGGGTTCTAACCTGTTGCCT (site ACGATCGCTAG)”, the “recombinant barcode read abundance (log10)” value was determined as 0.14.

Consider “ACGAAGCCTTGGGTTCTAACCTGTTGCCT (site ACGAAGCCTAG)”, for which the “recombinant barcode read abundance (log10)” value worked out at 1.35.

In the case of “ACGAAGCCTTGGGTTCTAACCTGTTGCCT (site GCGACGCCTAG)”, the “recombinant barcode read abundance (log10)” value stood at 0.19.

Consider “ACGACTCCTTGGGTTCTAACCTGTTGCCT (site ACGACTACTAG)”, for which the “recombinant barcode read abundance (log10)” value came out at 0.467.

In the case of “ACGACTCCTTGGGTTCTAACCTGTTGCCT (site ACGACTCCTAG)”, the “recombinant barcode read abundance (log10)” value is 0.618.

As for “ACGACTCCTTGGGTTCTAACCTGTTGCCT (site ACGACTGCTAG)”, the “recombinant barcode read abundance (log10)” value was 0.117.

On to “ACGACTCCTTGGGTTCTAACCTGTTGCCT (site ACGACTTCTAG)”, for which the “recombinant barcode read abundance (log10)” value amounted to 0.0781.

As to “ACGAGTCCTTGGGTTCTAACCTGTTGCCT (site ACGAGTCCTAC)”, the “recombinant barcode read abundance (log10)” value was 0.112.

“ACGAGTCCTTGGGTTCTAACCTGTTGCCT (site ACGAGTCCTAG)”: the “recombinant barcode read abundance (log10)” value worked out at 1.36.

With “ACGCACTCTTGGGTTCTAACCTGTTGCCT (site ACGCAATCTAG)”, the “recombinant barcode read abundance (log10)” value was found to be 0.02.

“ACGCACTCTTGGGTTCTAACCTGTTGCCT (site ACGCACTCTAG)”: the “recombinant barcode read abundance (log10)” value turned out to be 0.131.

With “ACGCACTCTTGGGTTCTAACCTGTTGCCT (site ACGCAGTCTAG)”, the “recombinant barcode read abundance (log10)” value came out at 0.109.

Turning to “ACGCACTCTTGGGTTCTAACCTGTTGCCT (site ACGCATTCTAG)”, the “recombinant barcode read abundance (log10)” value was 0.394.

“ACGCATACTTGGGTTCTAACCTGTTGCCT (site ACACATACTAG)”: the “recombinant barcode read abundance (log10)” value turned out to be 0.196.

With “ACGCATACTTGGGTTCTAACCTGTTGCCT (site ACGCATACTAG)”, the “recombinant barcode read abundance (log10)” value amounted to 0.0647.

Take “ACGCATCCTTGGGTTCTAACCTGTTGCCT (site AAGCATCCTAG)”: the “recombinant barcode read abundance (log10)” value worked out at 0.0107.

As for “ACGCATCCTTGGGTTCTAACCTGTTGCCT (site ACGCATCCTAG)”, the “recombinant barcode read abundance (log10)” value is 0.0284.

For “ACGCATCCTTGGGTTCTAACCTGTTGCCT (site AGGCATCCTAG)”, the “recombinant barcode read abundance (log10)” value is 0.0797.

For “ACGCATCCTTGGGTTCTAACCTGTTGCCT (site ATGCATCCTAG)”, the “recombinant barcode read abundance (log10)” value amounted to 0.11.

Consider “ACGCCCTCTTGGGTTCTAACCTGTTGCCT (site ACGCCCTCTAG)”, for which the “recombinant barcode read abundance (log10)” value is 0.0283.

On to “ACGCCCTCTTGGGTTCTAACCTGTTGCCT (site GCGCCCTCTAG)”, for which the “recombinant barcode read abundance (log10)” value came out at 0.302.

With “ACGCCTCCTTGGGTTCTAACCTGTTGCCA (site ACCCCTCCTTG)”, the “recombinant barcode read abundance (log10)” value was 0.0961.

Regarding “ACGCCTCCTTGGGTTCTAACCTGTTGCCA (site ACGCCTCCTTG)”, the “recombinant barcode read abundance (log10)” value came to 0.371.

On to “ACGCGAGCTTGGGTTCTAACCTGTTGCAG (site ACGCGAGCTCA)”, for which the “recombinant barcode read abundance (log10)” value was 0.188.

As to “ACGCGAGCTTGGGTTCTAACCTGTTGCAG (site ACGCGAGCTCC)”, the “recombinant barcode read abundance (log10)” value is 0.318.

Turning to “ACGCGAGCTTGGGTTCTAACCTGTTGCAG (site ACGCGAGCTCG)”, the “recombinant barcode read abundance (log10)” value was determined as 0.192.

“ACGCGAGCTTGGGTTCTAACCTGTTGCAG (site ACGCGAGCTCT)”: the “recombinant barcode read abundance (log10)” value came to 0.142.

On to “ACGCGAGCTTGGGTTCTAACCTGTTGCGG (site ACGCGAGCTCA)”, for which the “recombinant barcode read abundance (log10)” value was 0.066.

In the case of “ACGCGAGCTTGGGTTCTAACCTGTTGCGG (site ACGCGAGCTCC)”, the “recombinant barcode read abundance (log10)” value is 0.954.

In the case of “ACGCGAGCTTGGGTTCTAACCTGTTGCGG (site ACGCGAGCTCG)”, the “recombinant barcode read abundance (log10)” value turned out to be 0.316.

For the sequence “ACGCGAGCTTGGGTTCTAACCTGTTGCGG (site ACGCGAGCTCT)”, the “recombinant barcode read abundance (log10)” value stood at 0.423.

As for “ACGCGGACTTGGGTTCTAACCTGTTGCCT (site ACGCCGACTAG)”, the “recombinant barcode read abundance (log10)” value was determined as 0.

For “ACGCGGACTTGGGTTCTAACCTGTTGCCT (site ACGCGGACTAG)”, the “recombinant barcode read abundance (log10)” value was found to be 1.21.

“ACGCGTTCTTGGGTTCTAACCTGTTGCAT (site ACGCGTTCTAT)”: the “recombinant barcode read abundance (log10)” value was 0.0272.
